# Columns and labels:
# Assay in all cases: Test E pre-/postemergence herbicide test
# large crabgrass = format: in vivo, Digitaria sanguinalis
# Method in brief: (§1)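 Greenhouse response scored visually 12 to 14 days after treatment versus controls, 0 meaning no effect and 100 complete control. Compounds, formulated with surfactant in a non-phytotoxic solvent blend, were sprayed either preemergence after sowing or postemergence at the 1- to 4-leaf stage (2 to 18 cm).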
# barnyardgrass = format: in vivo, Echinochloa crus-galli
# Method in brief: as §1
# green foxtail = format: in vivo, Setaria viridis
# Method in brief: as §1
# annual bluegrass = format: in vivo, Poa annua
# Method in brief: as §1
# bermudagrass = format: in vivo, Cynodon dactylon
# Method in brief: as §1
# common ragweed = format: in vivo, Ambrosia elatior
# Method in brief: as §1
# johnsongrass = format: in vivo, Sorghum halepense
# Method in brief: as §1
# common sowthistle = format: in vivo, Sonchus oleraceous
# Method in brief: as §1
# goosegrass = format: in vivo, Eleusine indica
# Method in brief: as §1
# prickly sida = format: in vivo, Sida spinosa
# Method in brief: as §1
# Surinam grass = format: in vivo, Urochloa decumbens
# Method in brief: as §1
# quackgrass = format: in vivo, Elytrigia repens
# Method in brief: as §1
# mustard = format: in vivo, Brassica nigra
# Method in brief: as §1
# Russian thistle = format: in vivo, Salsola kali
# Method in brief: as §1
# common purslane = format: in vivo, Portulaca oleracea; details: Preemergence
# Method in brief: as §1
# common groundsel = format: in vivo, Senecio vulgaris
# Method in brief: as §1
# downy bromegrass = format: in vivo, Bromus tectorum
# Method in brief: as §1
# [1] = Postemergence, 500 g ai/ha, scale 0 to 100
# [2] = Postemergence, 250 g ai/ha, scale 0 to 100
# [3] = Preemergence, 62 g ai/ha, scale 0 to 100
# [4] = Preemergence, 125 g ai/ha, scale 0 to 100
# [5] = Preemergence, 250 g ai/ha, scale 0 (no effect) to 100 (complete control)
# [6] = Preemergence, 500 g ai/ha, scale 0 (no effect) to 100 (complete control)
# [7] = postemergence, 125 g ai/ha, scale 0 to 100
smiles,measurement,setting,value
CCNC(=O)c1ccnc(NC(=O)c2cc(C(C)(C)C)nn2CC)c1 [Compound 152],"Plant response rating, Crabgrass, Large",large crabgrass; [1],80
same,"Plant response rating, Crabgrass, Large",large crabgrass; [2],75
same,"Plant response rating, Crabgrass, Large",large crabgrass; [3],40
same,"Plant response rating, Crabgrass, Large",large crabgrass; [4],70
same,"Plant response rating, Crabgrass, Large",large crabgrass; [5],100
same,"Plant response rating, Crabgrass, Large",large crabgrass; [6],100
same,"Plant response rating, Crabgrass, Large",large crabgrass; [7],60
same,"Plant response rating, Barnyardgrass",barnyardgrass; [1],75
same,"Plant response rating, Barnyardgrass",barnyardgrass; [2],75
same,"Plant response rating, Barnyardgrass",barnyardgrass; [3],60
same,"Plant response rating, Barnyardgrass",barnyardgrass; [4],75
same,"Plant response rating, Barnyardgrass",barnyardgrass; [5],85
same,"Plant response rating, Barnyardgrass",barnyardgrass; [6],90
same,"Plant response rating, Barnyardgrass",barnyardgrass; [7],50
same,"Plant response rating, Foxtail, Green",green foxtail; [1],85
same,"Plant response rating, Foxtail, Green",green foxtail; [2],85
same,"Plant response rating, Foxtail, Green",green foxtail; [3],20
same,"Plant response rating, Foxtail, Green",green foxtail; [4],70
same,"Plant response rating, Foxtail, Green",green foxtail; [5],85
same,"Plant response rating, Foxtail, Green",green foxtail; [6],100
same,"Plant response rating, Foxtail, Green",green foxtail; [7],40
same,"Plant response rating, Bluegrass",annual bluegrass; [1],85
same,"Plant response rating, Bluegrass",annual bluegrass; [2],85
same,"Plant response rating, Bluegrass",annual bluegrass; [3],60
same,"Plant response rating, Bluegrass",annual bluegrass; [4],80
same,"Plant response rating, Bluegrass",annual bluegrass; [5],95
same,"Plant response rating, Bluegrass",annual bluegrass; [6],95
same,"Plant response rating, Bluegrass",annual bluegrass; [7],60
same,"Plant response rating, Bermudagrass",bermudagrass; [1],75
same,"Plant response rating, Bermudagrass",bermudagrass; [2],75
same,"Plant response rating, Bermudagrass",bermudagrass; [3],70
same,"Plant response rating, Bermudagrass",bermudagrass; [4],90
same,"Plant response rating, Bermudagrass",bermudagrass; [5],95
same,"Plant response rating, Bermudagrass",bermudagrass; [6],95
same,"Plant response rating, Bermudagrass",bermudagrass; [7],40
same,"Plant response rating, Ragweed",common ragweed; [1],75
same,"Plant response rating, Ragweed",common ragweed; [2],60
same,"Plant response rating, Ragweed",common ragweed; [3],20
same,"Plant response rating, Ragweed",common ragweed; [4],60
same,"Plant response rating, Ragweed",common ragweed; [5],80
same,"Plant response rating, Ragweed",common ragweed; [6],80
same,"Plant response rating, Ragweed",common ragweed; [7],50
same,"Plant response rating, Johnsongrass",johnsongrass; [1],95
same,"Plant response rating, Johnsongrass",johnsongrass; [2],80
same,"Plant response rating, Johnsongrass",johnsongrass; [3],30
same,"Plant response rating, Johnsongrass",johnsongrass; [4],50
same,"Plant response rating, Johnsongrass",johnsongrass; [5],80
same,"Plant response rating, Johnsongrass",johnsongrass; [6],85
same,"Plant response rating, Johnsongrass",johnsongrass; [7],70
same,"Plant response rating, Sowthistle",common sowthistle; [1],100
same,"Plant response rating, Sowthistle",common sowthistle; [2],90
same,"Plant response rating, Sowthistle",common sowthistle; [3],80
same,"Plant response rating, Sowthistle",common sowthistle; [4],80
same,"Plant response rating, Sowthistle",common sowthistle; [5],95
same,"Plant response rating, Sowthistle",common sowthistle; [6],95
same,"Plant response rating, Goosegrass",goosegrass; [1],75
same,"Plant response rating, Goosegrass",goosegrass; [2],60
same,"Plant response rating, Goosegrass",goosegrass; [3],30
same,"Plant response rating, Goosegrass",goosegrass; [4],70
same,"Plant response rating, Goosegrass",goosegrass; [5],80
same,"Plant response rating, Goosegrass",goosegrass; [6],90
same,"Plant response rating, Goosegrass",goosegrass; [7],50
same,"Plant response rating, Prickly Sida",prickly sida; [1],85
same,"Plant response rating, Prickly Sida",prickly sida; [2],60
same,"Plant response rating, Prickly Sida",prickly sida; [3],20
same,"Plant response rating, Prickly Sida",prickly sida; [4],20
same,"Plant response rating, Prickly Sida",prickly sida; [5],60
same,"Plant response rating, Prickly Sida",prickly sida; [6],95
same,"Plant response rating, Surinam Grass",Surinam grass; [1],80
same,"Plant response rating, Surinam Grass",Surinam grass; [2],60
same,"Plant response rating, Surinam Grass",Surinam grass; [3],20
same,"Plant response rating, Surinam Grass",Surinam grass; [4],50
same,"Plant response rating, Surinam Grass",Surinam grass; [6],80
same,"Plant response rating, Surinam Grass",Surinam grass; [7],30
same,"Plant response rating, Quackgrass",quackgrass; [1],80
same,"Plant response rating, Quackgrass",quackgrass; [2],80
same,"Plant response rating, Quackgrass",quackgrass; [3],10
same,"Plant response rating, Quackgrass",quackgrass; [4],20
same,"Plant response rating, Quackgrass",quackgrass; [5],50
same,"Plant response rating, Quackgrass",quackgrass; [6],60
same,"Plant response rating, Quackgrass",quackgrass; [7],70
same,"Plant response rating, Black Mustard",mustard; [1],100
same,"Plant response rating, Black Mustard",mustard; [2],100
same,"Plant response rating, Black Mustard",mustard; [3],90
same,"Plant response rating, Black Mustard",mustard; [4],90
same,"Plant response rating, Black Mustard",mustard; [5],95
same,"Plant response rating, Black Mustard",mustard; [6],100
same,"Plant response rating, Thistle",Russian thistle; [1],80
same,"Plant response rating, Thistle",Russian thistle; [2],80
same,"Plant response rating, Thistle",Russian thistle; [3],20
same,"Plant response rating, Thistle",Russian thistle; [4],20
same,"Plant response rating, Thistle",Russian thistle; [6],100
same,"Plant response rating, Purslane","common purslane; 62 g ai/ha, scale 0 to 100",0
same,"Plant response rating, Purslane","common purslane; 125 g ai/ha, scale 0 to 100",0
same,"Plant response rating, Purslane","common purslane; 250 g ai/ha, scale 0 (no effect) to 100 (complete control)",50
same,"Plant response rating, Purslane","common purslane; 500 g ai/ha, scale 0 (no effect) to 100 (complete control)",100
same,"Plant response rating, Groundsel",common groundsel; [1],95
same,"Plant response rating, Groundsel",common groundsel; [2],95
same,"Plant response rating, Groundsel",common groundsel; [3],95
same,"Plant response rating, Groundsel",common groundsel; [4],100
same,"Plant response rating, Groundsel",common groundsel; [5],100
same,"Plant response rating, Groundsel",common groundsel; [6],100
same,"Plant response rating, Groundsel",common groundsel; [7],90
same,"Plant response rating, Bromegrass, Downy",downy bromegrass; [1],80
same,"Plant response rating, Bromegrass, Downy",downy bromegrass; [2],75
same,"Plant response rating, Bromegrass, Downy",downy bromegrass; [3],0
same,"Plant response rating, Bromegrass, Downy",downy bromegrass; [4],30
same,"Plant response rating, Bromegrass, Downy",downy bromegrass; [5],60
same,"Plant response rating, Bromegrass, Downy",downy bromegrass; [6],90

# Reference: patent US20060069132A1, “Azolecarboxamide herbicides” (priority 2004, published 2006)
